Measurements reported in article PMC5643385, “Probing ligand recognition of the opioid pan antagonist AT-076 at nociceptin, kappa, mu, and delta opioid receptors through structure-activity relationships” (Scientific Reports, 2017).
Where two headings read alike, the source gives them in different places. Each block holds one molecule with its values, some of them ahead of it.

Key:
[1] = biological target: T1, human MOP receptor (Homo sapiens, UniProt P35372); test: Radioligand competition binding, [3H]DAMGO, membranes of transfected CHO cells
[2] = biological target: T2, human KOP receptor (Homo sapiens, UniProt P41145); test: Radioligand competition binding, [3H]U69,593, membranes of transfected CHO cells (Kappa-CN)
[3] = biological target: T3, human NOP receptor (Homo sapiens, UniProt P41146); test: Radioligand competition binding, [3H]N/OFQ, membranes of transfected CHO cells
[4] = biological target: T4, human DOP receptor (Homo sapiens, UniProt P41143); test: Radioligand competition binding, [3H]DPDPE, membranes of transfected CHO cells
[5] = biological target: T3, human NOP receptor; set-up: method as in PMID 25635572; conditions: Figure 1; cited from earlier work
[6] = system: NOP; set-up: method as in PMID 16451050; conditions: Figure 1; cited from earlier work
[7] = biological target: T1, human MOP receptor; test: biochemical
[8] = biological target: T3, human NOP receptor; test: [35S]GTPγS functional assay (intrinsic activity; Schild analysis vs N/OFQ); assay type: biochemical
[9] = biological target: T2, human KOP receptor; test: biochemical
[10] = biological target: T4, human DOP receptor; conditions: read-out: DOP Ki; Figure 1; cited from earlier work
[11] = biological target: T1, human MOP receptor; conditions: read-out: MOP Ki; Figure 1; cited from earlier work
[12] = biological target: T4, human DOP receptor; test: [35S]GTPγS functional assay (intrinsic activity; Schild analysis vs DPDPE); assay type: biochemical; conditions: inhibition of agonist-induced [35S]GTPγS binding, read-out: Antagonist Potency (pA2 ± SEM) DOP (converted)
[13] = biological target: T2, human KOP receptor; set-up: method as in PMID 25635572; conditions: Figure 1; cited from earlier work
[14] = [3H]DAMGO displacement, Cheng-Prusoff, mean ± SEM, at least three experiments in triplicate, read-out: Receptor Binding, Ki MOP
[15] = [3H]U69,593 displacement, Cheng-Prusoff, mean ± SEM, at least three experiments in triplicate, read-out: Receptor Binding, Ki KOP
[16] = [3H]N/OFQ displacement, Cheng-Prusoff, mean ± SEM, at least three experiments in triplicate, read-out: Receptor Binding, Ki NOP
[17] = read-out: Receptor Binding, Ki DOP
[18] = read-out: Receptor Binding, Ki MOP
[19] = read-out: Receptor Binding, Ki KOP

Compound: CC(C)[C@@H](CN1CCC(c2cccc(O)c2)CC1)NC(=O)[C@H]1Cc2ccc(CN)cc2CN1 [Compound 3, (R)-7-(aminomethyl)-N-((S)-1-(4-(3-hydroxyphenyl)piperidin-1-yl)-3-methylbutan-2-yl)-1,2,3,4-tetrahydroisoquinoline-3-carboxamide]
Decrease in MOP binding affinity compared to AT-076 [1]: > 100 fold | Ki [1, 14]: 1490 ± 220 nM | Decrease in KOP binding affinity compared to AT-076 [2]: > 100 fold | Ki [2, 15]: 118 ± 29 nM | Ki [3, 16]: 5540 ± 1150 nM | Decrease in DOP binding affinity compared to AT-076 [4]: > 100 fold | Ki [4, 17]: 1570 ± 1130 nM

Compound: CC(C)[C@@H](CN1CC[C@@](C)(c2cccc(O)c2)[C@@H](C)C1)NC(=O)[C@H]1Cc2ccc(O)cc2CN1 [JDTic, reference compound]
Ki ([3]; read-out: Receptor Binding, Ki NOP): 16.7 ± 0.76 nM | Ki [5]: 16.7 ± 0.76 nM

Compound: CC(C)[C@@H](CN1CCC(c2cccc(CN)c2)CC1)NC(=O)[C@H]1Cc2ccccc2CN1 [Compound 11, (R)-N-((S)-1-(4-(3-(aminomethyl)phenyl)piperidin-1-yl)-3-methylbutan-2-yl)-1,2,3,4-tetrahydroisoquinoline-3-carboxamide]
Ki [1, 14]: 284 ± 75.3 nM | Ki [2, 15]: 408 ± 30.8 nM | Ki [3, 16]: 202 ± 55.6 nM | Ki [4, 17]: > 10000 nM

Compound: O=C(NCCCN1CCC2(CC1)OCc1ccccc12)C1CCCN1Cc1ccccc1 (stereo not drawn) [Compound C-24]
IC50 [6]: 0.27 ± 0.038 nM

Ki [1, 14]: 180 ± 70 nM | Decrease in MOP binding affinity compared to AT-076 ([1]; vs lead AT-076 (1)): > 100 fold | Ki [2, 15]: 129 ± 60 nM | Decrease in KOP binding affinity compared to AT-076 ([2]; vs lead AT-076 (1)): > 100 fold | Ki [3, 16]: 3260 ± 780 nM | Ki [4, 17]: > 10000 nM | Decrease in DOP binding affinity compared to AT-076 ([4]; vs lead AT-076 (1)): > 100 fold
Compound: CC(C)[C@@H](CN1CCC(c2cccc(O)c2)CC1)NC(=O)[C@H]1Cc2ccc(CNC(=N)N)cc2CN1 [Compound 4, (R)-7-(guanidinomethyl)-N-((S)-1-(4-(3-hydroxyphenyl)piperidin-1-yl)-3-methylbutan-2-yl)-1,2,3,4-tetrahydroisoquinoline-3-carboxamide]

Compound: CC(C)[C@@H](CN1CCC(N2CCc3ccccc32)CC1)NC(=O)[C@H]1Cc2ccc(O)cc2CN1 [Compound 16, (R)-7-hydroxy-N-((S)-1-(4-(indolin-1-yl)piperidin-1-yl)-3-methylbutan-2-yl)-1,2,3,4-tetrahydroisoquinoline-3-carboxamide]
Ki [3, 16]: 566 ± 129 nM | Ki [4, 17]: 138 ± 45 nM

Compound: CC(C)[C@@H](CN1CCC(c2cccc(CNC(=O)[C@@H](N)CCCNC(=N)N)c2)CC1)NC(=O)[C@H]1Cc2ccc(O)cc2CN1 [Compound 12, (R)-N-((S)-1-(4-(3-(((S)-2-amino-5-guanidinopentanamido)methyl)phenyl)piperidin-1-yl)-3-methylbutan-2-yl)-7-hydroxy-1,2,3,4-tetrahydroisoquinoline-3-carboxamide]
Ki [1]: 5.67 ± 2.38 nM | Ki [2]: 2.11 ± 0.52 nM | Kb [7]: 0.692 nM | Ki [3]: 6.04 ± 1.32 nM | Kb [8]: 5.01 nM | Ki [4]: 53.6 ± 7.12 nM | Kb [9]: 0.158 nM

Compound: CC(C)[C@@H](CN1CCC(c2cccc(C#N)c2)CC1)NC(=O)[C@H]1Cc2ccc(O)cc2CN1 [Compound 8, (R)-N-((S)-1-(4-(3-cyanophenyl)piperidin-1-yl)-3-methylbutan-2-yl)-7-hydroxy-1,2,3,4-tetrahydroisoquinoline-3-carboxamide]
Ki [1]: 2.93 ± 0.67 nM | Ki [2]: 3.86 ± 0.09 nM | Kb [7]: 8.13 nM | Ki [3]: 61.3 ± 14.6 nM | Ki [4, 17]: 136 ± 59.7 nM | Kb [9]: 0.269 nM

Compound: CC(C)[C@@H](CN1CCC(c2cccc(O)c2)CC1)NC(=O)[C@H]1Cc2ccc(O)cc2CN1 [1 (AT-076), (R)-7-hydroxy-N-((S)-1-(4-(3-hydroxyphenyl)piperidin-1-yl)-3-methylbutan-2-yl)-1,2,3,4-tetrahydroisoquinoline-3-carboxamide]
Ki [10]: 19.6 ± 1.3 nM | Ki [1, 18]: 1.67 ± 0.6 nM | Ki [2, 19]: 1.14 ± 0.63 nM | Antagonist Potency (pA2 ± SEM) MOP ([7]; cho cell membranes): 9.24 | Ki [11]: 1.67 ± 0.6 nM | Ki [4, 17]: 19.6 ± 1.3 nM | Kb [12]: 26.9 nM | Ki [13]: 1.14 ± 0.63 nM | Antagonist Potency (pA2 ± SEM) KOP ([9]; cho cell membranes): 8.366

Compound: CC(C)[C@@H](CN1CCC(c2cccc(CNC(=O)[C@@H](N)CCCNC(=N)N)c2)CC1)NC(=O)[C@H]1Cc2ccccc2CN1 [Compound 13, (R)-N-((S)-1-(4-(3-(((S)-2-amino-5-guanidinopentanamido)methyl)phenyl)piperidin-1-yl)-3-methylbutan-2-yl)-1,2,3,4-tetrahydroisoquinoline-3-carboxamide]
Ki [1, 14]: 408 ± 37.3 nM | Ki [2]: 56.1 ± 5.38 nM | Ki [3]: 43.3 ± 19.1 nM | Ki [4, 17]: > 10000 nM

Compound: CC(C)[C@@H](CN1CCC(c2cccc(O)c2)CC1)NC(=O)[C@@H](N)CCCNC(=N)N [Compound 7, (S)-2-amino-5-guanidino-N-((S)-1-(4-(3-hydroxyphenyl)piperidin-1-yl)-3-methylbutan-2-yl)pentanamide]
Ki [1, 14]: 1440 ± 57.6 nM | Ki [2, 15]: 125 ± 2.4 nM | Ki [3, 16]: > 10000 nM | Ki [4, 17]: > 10000 nM

Compound: CC(C)[C@@H](CN1CCC(c2cccc(C#N)c2)CC1)NC(=O)[C@H]1Cc2ccccc2CN1 [Compound 9, (R)-N-((S)-1-(4-(3-cyanophenyl)piperidin-1-yl)-3-methylbutan-2-yl)-1,2,3,4-tetrahydroisoquinoline-3-carboxamide]
Ki [1, 14]: 973 ± 21 nM | Ki [2, 15]: 543 ± 62.2 nM | Ki [3, 16]: > 10000 nM | Ki [4, 17]: > 10000 nM

Compound: CC(C)[C@@H](CN1CCC(c2cccc(O)c2)CC1)NC(=O)[C@@H](N)CCCCN [Compound 6, (S)-2,6-diamino-N-((S)-1-(4-(3-hydroxyphenyl)piperidin-1-yl)-3-methylbutan-2-yl)hexanamide]
Ki [1, 14]: > 10000 nM | Ki [2, 15]: 1520 ± 419 nM | Ki [3, 16]: > 10000 nM | Ki [4, 17]: > 10000 nM

Compound: CC(C)[C@@H](CN1CCC(c2cccc(CN)c2)CC1)NC(=O)[C@H]1Cc2ccc(O)cc2CN1 [Compound 10, (R)-N-((S)-1-(4-(3-(aminomethyl)phenyl)piperidin-1-yl)-3-methylbutan-2-yl)-7-hydroxy-1,2,3,4-tetrahydroisoquinoline-3-carboxamide]
Ki [1]: 0.68 ± 0.28 nM | Ki [2]: 1.08 ± 0.01 nM | Kb [7]: 15.5 nM | Increase in NOP binding affinity compared to cyano precursor 8 [3]: 2 fold | Ki [3]: 30.7 ± 14.5 nM | Kb [8]: 132 nM | Ki [4, 17]: 133 ± 24.9 nM | Kb [9]: 0.38 nM

Compound: CC(C)[C@@H](CN1CCC(c2cccc(O)c2)CC1)NC(=O)[C@H]1Cc2ccc(C#N)cc2CN1 [Compound 2, (R)-7-cyano-N-((S)-1-(4-(3-hydroxyphenyl)piperidin-1-yl)-3-methylbutan-2-yl)-1,2,3,4-tetrahydroisoquinoline-3-carboxamide]
Ki [1]: 81.7 ± 12.4 nM | Decrease in KOP binding affinity compared to AT-076 [2]: 6 fold | Ki [2]: 6.73 ± 1.42 nM | Ki [3, 16]: 1890 ± 270 nM | Ki [4]: 73.7 ± 57.9 nM | Profile in Schild analysis KOP [9]: N/C^#

Compound: CC(C)[C@@H](CN1CCC(c2cccc(O)c2)CC1)NC(=O)[C@H]1Cc2ccc(CNS(C)(=O)=O)cc2CN1 [Compound 5, (R)-N-((S)-1-(4-(3-hydroxyphenyl)piperidin-1-yl)-3-methylbutan-2-yl)-7-(methylsulfonamidomethyl)-1,2,3,4-tetrahydroisoquinoline-3-carboxamide]
Ki [1, 14]: 4400 ± 2350 nM | Ki [2, 15]: 295 ± 65 nM | Ki [3, 16]: 7910 ± 1470 nM | Ki [4, 17]: > 10000 nM

Compound: Cc1cccc2c1CC[C@H](CN1CCC(c3c(Cl)cccc3Cl)CC1)C[C@@H]2O [SB-612111, reference compound]
Ki [1, 18]: 623 ± 156 nM | Ki [2, 19]: 541 ± 36.3 nM | Ki [4, 17]: 2890 ± 532 nM

Compound: CC(C)[C@@H](CN1CCC(C2CCCCC2)CC1)NC(=O)[C@H]1Cc2ccc(O)cc2CN1 [Compound 14, (R)-N-((S)-1-(4-cyclohexylpiperidin-1-yl)-3-methylbutan-2-yl)-7-hydroxy-1,2,3,4-tetrahydroisoquinoline-3-carboxamide]
Ki [1]: 2.79 ± 0.28 nM | Binding selectivity for KOP over DOP [2]: 49 fold | Binding selectivity for KOP over MOP [2]: 11 fold | Binding selectivity for KOP over NOP [2]: 333 fold | Higher KOP affinity than AT-076 [2]: 2–4 fold | Ki [2]: 0.253 ± 0.015 nM | Kb [7]: 0.692 nM | Ki [3]: 84.4 ± 13.6 nM | Ki [4]: 12.4 ± 8 nM | Kb [12]: 42.3 nM | Kb [9]: 0.0347 nM
